Tests used:
TLR7 = TLR7 (Homo sapiens (Human), UniProt Q9NYK1); experiment: TLR7 agonist bioactivity: induction of IFNα protein in pDC-enriched PBMC cultures (ELISA, 24 h); assay type: cell-based; details: less potent than IMDQ
Protocol: Plasmacytoid dendritic cell (pDC)—enriched peripheral blood mononuclear cells (PBMCs) were prepared from the blood of a series of human donors (3-5 donors/experiment). PBMCs were isolated using Ficoll-Paque Premium® (GE Healthcare, Chicago Ill.) using methods well known to those in the art. pDCs were magnetically isolated from the total recovered PBMC population using CD304 (BDCA-4/Neuropilin-1) microbeads (Miltenyi Biotec, San Diego Calif.), according to the manufacturer's instructions. Isolated pDCs were then added back to between 1 and 2×10^8 of the corresponding donor's PBMCs for relative enrichment of this cell type. […] Culture supernatants were collected and interferon-alpha (IFNα) protein levels were measured by ELISA (MabTech, Cincinnati Ohio), according to the manufacturer's instructions.

TLR8 = TLR8 (Homo sapiens (Human), UniProt Q9NR97); experiment: TLR8 agonist bioactivity: induction of TNFα protein in monocyte cultures (ELISA, 24 h); assay type: cell-based
Chain of TLR8 (Q9NR97 27-1041): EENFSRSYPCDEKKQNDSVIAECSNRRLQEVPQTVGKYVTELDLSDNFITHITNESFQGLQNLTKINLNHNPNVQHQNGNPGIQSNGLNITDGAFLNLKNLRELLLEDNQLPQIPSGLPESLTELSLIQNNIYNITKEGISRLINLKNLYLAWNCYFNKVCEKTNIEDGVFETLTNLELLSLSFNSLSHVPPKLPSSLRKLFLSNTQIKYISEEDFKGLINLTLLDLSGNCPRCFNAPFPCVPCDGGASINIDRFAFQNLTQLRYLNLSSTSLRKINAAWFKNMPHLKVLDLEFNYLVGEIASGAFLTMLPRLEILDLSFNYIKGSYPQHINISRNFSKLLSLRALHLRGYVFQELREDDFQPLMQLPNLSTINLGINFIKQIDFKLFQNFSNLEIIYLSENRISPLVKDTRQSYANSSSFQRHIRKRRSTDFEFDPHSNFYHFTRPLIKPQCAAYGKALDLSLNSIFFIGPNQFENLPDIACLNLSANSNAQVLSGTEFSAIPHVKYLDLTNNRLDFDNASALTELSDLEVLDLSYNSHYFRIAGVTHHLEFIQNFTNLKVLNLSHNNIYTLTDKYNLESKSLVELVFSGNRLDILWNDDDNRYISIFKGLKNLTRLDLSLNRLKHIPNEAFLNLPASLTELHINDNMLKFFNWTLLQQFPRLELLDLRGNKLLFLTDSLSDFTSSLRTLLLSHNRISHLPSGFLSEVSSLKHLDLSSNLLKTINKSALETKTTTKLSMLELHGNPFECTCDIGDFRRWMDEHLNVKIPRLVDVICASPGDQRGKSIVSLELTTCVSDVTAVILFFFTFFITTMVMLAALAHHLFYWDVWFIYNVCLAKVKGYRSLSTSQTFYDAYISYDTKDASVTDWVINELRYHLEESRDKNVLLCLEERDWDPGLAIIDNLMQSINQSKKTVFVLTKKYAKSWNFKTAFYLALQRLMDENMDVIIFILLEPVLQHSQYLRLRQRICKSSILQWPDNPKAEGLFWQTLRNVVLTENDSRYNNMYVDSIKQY
Protocol: Monocytes were magnetically isolated from PBMCs, prepared as described above, following labeling with CD14 microbeads (Miltenyi Biotec, San Diego Calif.), according to the manufacturer's instructions. […] Culture supernatants were collected and tumor necrosis factor alpha (TNFα) protein levels were measured by ELISA (MabTech, Cincinnati Ohio), according to the manufacturer's instructions.

CT26 colon carcinoma [1] = experiment: Anti-tumor efficacy, repeated intratumoral dosing in CT26 colon carcinoma-bearing wild-type mice; assay type: in vivo; details: 0.5-20 μg in 95% sesame oil/5% ethanol
Protocol: The effect of repeated weekly doses of intratumorally delivered pharmaceutical compositions comprised of Compound No. 63-10, 63-18, or 63-33 formulated in 95% sesame oil/5% ethanol (v/v) on tumor growth inhibition was assessed in syngeneic CT26 colon carcinoma-bearing Balb/c mice. All in vivo procedures were conducted in accordance with approved Institutional Animal Care and Use Committee (IACUC) protocols. The animals were housed in a facility that is accredited by the Association for Accreditation and Laboratory Animal Care (AALAC, Frederick, Md.). Wild-type female Balb/c mice (15-20 gm) were obtained from Envigo (Hayward, Calif.) and acclimated for 2-3 days prior to use.
The pharmaceutical compositions were made with the three compounds at final concentrations of 5, 50, and 200 μg/mL in a manner similar to that described in Example B2-1. […] On day 0, mice were anesthetized with 1% isoflurane and 80,000 CT26 tumor cells in 200 uL of RMPI-1640 culture media plus 2.5% fetal bovine serum were injected subcutaneously in the right flank. Tumors were allowed to grow until they were ˜35 mm^3, at which point animals were assigned to groups to begin treatment. Mice were injected weekly for 4 weeks intratumorally with 100 uL of a pharmaceutical composition comprising 20, 5, or 0.5 μgs of Compound No. 63-10, or 20 or 5 μgs of Compound Nos. 63-18, or 63-33 formulated in 95% sesame oil/5% ethanol (v/v), or a vehicle control, twice weekly for 3 weeks (experimental days 9, 12, 16, 19, 23, and 26). The TLR9 CpG agonist was injected intratumorally with 100 μL of a pharmaceutical composition comprised of 50 μgs of compound formulated in phosphate buffered saline on the same dosing schedule. Tumor sizes were measured twice weekly from days 8 through day 30 with calipers, with tumor volumes calculated using the formula: length, multiplied by width, multiplied by width, divided by 2.

CT26 colon carcinoma [2] = experiment: Anti-tumor efficacy in combination with anti-PD-1 antibody in dual flank CT26 colon carcinoma-bearing mice; assay type: in vivo; details: 5,000 ng single intratumoral dose day 14, in combination with anti-PD-1
Protocol: All in vivo procedures were conducted in accordance with approved IACUC protocols. The animals were housed in a facility that is accredited by the AALAC. Wild-type female Balb/c mice (15-20 g) were obtained from Envigo (Hayward, Calif.) and acclimated for 2-3 days prior to use.
The pharmaceutical compositions were made using Compound No. 63-10 or 63-33 at final concentrations of 50,000 ng/mL in a manner similar to that described for Example B2-1. […] On day 0, mice were anesthetized with 1% isoflurane, and 80,000 CT26 tumor cells in 200 uL of RMPI-1640 culture media plus 2.5% fetal bovine serum were injected subcutaneously in both the right and left flanks. Tumors (left and right) were allowed to grow until day 8, when the right and left flank tumor sizes had reached approximately 35 mm^3, at which point mice were injected intraperitoneally with 250 μg of anti-PD-1 antibody formulated in phosphate buffered saline or a phosphate buffered saline vehicle control. The anti-PD-1 treatments were repeated on experimental days 12, 15, 19, 22, and 26. On experimental day 14, when the right (injected) and left (distal) flank tumors had reached approximately 100 mm^3, mice were randomized into treatment groups. […] Tumor sizes were measured twice weekly from days 14 through day 29 with calipers, with tumor volumes calculated using the formula: length, multiplied by width, multiplied by width, divided by 2.

Chain of TLR7 (Q9NYK1 27-1049): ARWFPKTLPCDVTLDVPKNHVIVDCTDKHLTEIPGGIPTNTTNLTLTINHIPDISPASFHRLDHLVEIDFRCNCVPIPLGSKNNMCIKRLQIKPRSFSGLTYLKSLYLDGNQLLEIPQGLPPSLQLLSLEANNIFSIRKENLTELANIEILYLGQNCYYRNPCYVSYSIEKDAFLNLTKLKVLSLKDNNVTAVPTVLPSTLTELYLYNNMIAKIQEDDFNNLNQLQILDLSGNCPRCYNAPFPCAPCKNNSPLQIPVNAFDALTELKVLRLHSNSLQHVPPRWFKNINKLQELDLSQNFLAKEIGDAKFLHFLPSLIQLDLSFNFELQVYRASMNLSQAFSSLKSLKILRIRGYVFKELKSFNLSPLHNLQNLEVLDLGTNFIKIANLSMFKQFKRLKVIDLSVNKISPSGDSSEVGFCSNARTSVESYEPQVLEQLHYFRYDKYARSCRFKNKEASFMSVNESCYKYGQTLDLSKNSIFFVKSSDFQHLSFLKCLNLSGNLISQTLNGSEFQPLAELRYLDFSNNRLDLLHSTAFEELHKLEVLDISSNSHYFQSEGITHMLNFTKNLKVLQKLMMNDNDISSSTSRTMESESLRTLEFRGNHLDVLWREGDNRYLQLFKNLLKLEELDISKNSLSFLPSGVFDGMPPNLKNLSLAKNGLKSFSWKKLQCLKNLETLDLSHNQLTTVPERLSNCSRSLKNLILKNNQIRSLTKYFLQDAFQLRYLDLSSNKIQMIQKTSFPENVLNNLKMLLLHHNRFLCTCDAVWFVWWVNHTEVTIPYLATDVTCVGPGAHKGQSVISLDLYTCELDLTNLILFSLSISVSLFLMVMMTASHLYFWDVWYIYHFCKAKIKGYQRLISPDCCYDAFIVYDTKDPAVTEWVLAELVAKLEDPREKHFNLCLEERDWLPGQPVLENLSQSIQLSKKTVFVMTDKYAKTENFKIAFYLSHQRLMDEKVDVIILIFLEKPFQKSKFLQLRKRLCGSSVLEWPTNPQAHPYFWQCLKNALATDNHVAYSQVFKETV

fold loss of TLR7 agonist potency compared to Compound No. 63-00 (IMDQ) (TLR7): 2 fold
EC50 (TLR8; TNFα induction, human monocytes, 24 hours): 522 nM
fold loss of TLR8 agonist potency compared to Compound No. 63-00 (IMDQ) (TLR8; less potent than IMDQ): 2.4 fold
Structure (SMILES): CCCCCCCCCCCCCC(=O)NCc1ccc(Cn2c(CCCC)nc3c(N)nc4ccccc4c32)cc1 [Compound No. 63-10, N-(4-((4-amino-2-butyl-1H-imidazo[4,5-c]quinolin-1-yl)methyl)benzyl)tetradecanamide]
CT26 tumor growth control compared to the vehicle control (CT26 colon carcinoma [1]): robust CT26 tumor growth control
tumor growth inhibition in the injected tumor (right flank) compared to the anti-PD-1 treatment alone (CT26 colon carcinoma [2]): greater tumor growth inhibition
tumor growth inhibition in the distal tumor (left flank) compared to the anti-PD-1 treatment alone (CT26 colon carcinoma [2]; day 29): no improvement

— patent US11124510B2, “Alkyl chain modified imidazoquinoline TLR7/8 agonist compounds and uses thereof” (Dynavax Technologies Corporation, priority 2017, dated 2021)
